In brackets after ≈: the same amount, converted by molar mass.

The text below walks through data of patent US20090221590A1, “SALT OF CD 80 ANTAGONIST” (MEDIGENE LIMITED, priority 2006, published 2009).

This data set can be described thus: Solubility Assay (saturation, shaker 24 hours, supernatant analysed by HPLC). As to conditions: for Solubility (mg/ml) in ethanol: solvent ethanol; for Solubility (mg/ml) in ethanol / Solubility (mg/ml) in water: 25 deg C./60% relative humidity, 24 hours; for Solubility (mg/ml) in water: solvent water; for solubility at 24 h: 25 °C, thermodynamic from solid.

Method: 10 mg of the test compound was weighed into a vial, and 1 ml of solvent was added. If the sample dissolved immediately, as evidenced by a formation of a clear solution, more of the test material was added and the vial sonicated for 15 mins. This procedure was repeated until no more test compound could be dissolved, as evidenced by formation of a suspension. The vial containing the suspension was then was sonicated for 15 mins, and placed on a shaker at 25 deg C./60% relative humidity for 24 hours. On removal from the shaker, the sample was centrifuged and the supernatant analysed by HPLC.

For `[Mg]` [Magnesium], the “Solubility (mg/ml) in ethanol” value was below 5 mg/mL and the “Solubility (mg/ml) in water” value is below 5 mg/mL.
With `O=C(NCC(F)F)c1ccc(-n2[nH]c3c(nnc4c(F)cccc43)c2=O)cc1` [None (free acid), 4-(6-fluoro-3-oxo-1,3-dihydro-pyrazolo[4,3-c]cinnolin-2-yl)-N-(2,2-difluoro-ethyl)-benzamide], the solubility (usually the dissolved amount per volume that the medium holds) at 24 h is 2100 µg/mL (≈ 5.42 mM) (ethanol, organic solvent or mixture) and below 500 µg/mL (water). For the same compound, the “aqueous solubility (in words)” value (water, qualitative statement) is on record as “poorly soluble in water”.
As to `[K+]` [Potassium], the “Solubility (mg/ml) in ethanol” value is below 5 mg/mL and the “Solubility (mg/ml) in water” value is below 5 mg/mL.
With Sodium, the “Solubility (mg/ml) in ethanol” value is 7.1 mg/mL and the “Solubility (mg/ml) in water” value is below 5 mg/mL.
